Tests used:
Format in all cases: cell-based
D. immitis L4 larvae = assay: Dirofilaria immitis, L4 Stage (DiL4) In Vitro Assay; settings: for minimal effective concentration: Dirofilaria immitis, 72 h, read-out: DiL4 MED, Minimum Effective Dose, D. immitis L4 larvae motility, in vitro; for DiMf/DiL4: larval stage selectivity, ratio of DiMf MED to DiL4 MED
[1] = system: microfilariae of Dirofilaria immitis; assay: Dirofilaria immitis, Microfilaria (DiMf) In Vitro Assay; settings: Dirofilaria immitis, 72 h, read-out: DiMf MED, Minimum Effective Dose, D. immitis microfilariae motility, in vitro
[2] = system: third stage larvae of Haemonchus contortus; assay: Haemonchus contortus, Larvae Stage 3 (HcL3) In Vitro Assay; settings: Haemonchus contortus, 96 h, read-out: HcL3 MED, Minimum Effective Dose, H. contortus third stage larvae, approximately 96 hours

| SMILES | minimal effective concentration (D. immitis L4 larvae) [µM] | DiMf/DiL4 (D. immitis L4 larvae) | minimal effective concentration [1] [µM] | minimal effective concentration [2] [µM] |
| --- | --- | --- | --- | --- |
| COc1cncc(Cc2ccc(C[C@H]3OC(=O)[C@H](CC(C)C)N(C)C(=O)[C@@H](C)OC(=O)[C@H](CC(C)C)N(C)C(=O)[C@@H](Cc4ccc(Cc5cncc(OC)n5)cc4)OC(=O)[C@H](CC(C)C)N(C)C(=O)[C@@H](C)OC(=O)[C@H](CC(C)C)N(C)C3=O)cc2)n1 [Example 3-218, (3S,6R,9S,12R,15S,18R,21S,24R)-3,9,15,21-tetraisobutyl-6,18-bis(4-((6-methoxypyrazin-2-yl)methyl)benzyl)-4,10,12,16,22,24-hexamethyl-1,7,13,19-tetraoxa-4,10,16,22-tetraazacyclotetracosan-2,5,8,11,14,17,20,23-octaone] | 0.0008 | 12.5 | 0.01 | > 23 |
| COc1ncccc1C(C)(F)c1ccc(C[C@H]2OC(=O)[C@H](CC(C)C)N(C)C(=O)[C@@H](C)OC(=O)[C@H](CC(C)C)N(C)C(=O)[C@@H](Cc3ccc(C(C)(F)c4cccnc4OC)cc3)OC(=O)[C@H](CC(C)C)N(C)C(=O)[C@@H](C)OC(=O)[C@H](CC(C)C)N(C)C2=O)cc1 (stereo partly drawn) [Example 3-220, (3S,6R,9S,12R,15S,18R,21S,24R)-6,18-bis(4-(1-fluoro-1-(2-methoxypyridin-3-yl)ethyl)benzyl)-3,9,15,21-tetraisobutyl-4,10,12,16,22,24-hexamethyl-1,7,13,19-tetraoxa-4,10,16,22-tetraazacyclotetracosan-2,5,8,11,14,17,20,23-octaone] | 0.0007 | 7.1 | 0.005 | > 100 |
| Cc1ccncc1Cc1ccc(C[C@H]2OC(=O)[C@H](CC(C)C)N(C)C(=O)[C@@H](C)OC(=O)[C@H](CC(C)C)N(C)C(=O)[C@@H](Cc3ccc(Cc4cnccc4C)cc3)OC(=O)[C@H](CC(C)C)N(C)C(=O)[C@@H](C)OC(=O)[C@H](CC(C)C)N(C)C2=O)cc1 [Example 3-223, (3S,6R,9S,12R,15S,18R,21S,24R)-3,9,15,21-tetraisobutyl-4,6,10,16,18,22-hexamethyl-12,24-bis(4-((4-methylpyridin-3-yl)methyl)benzyl)-1,7,13,19-tetraoxa-4,10,16,22-tetraazacyclotetracosan-2,5,8,11,14,17,20,23-octaone] | 0.0007 | 7.1 | 0.005 | 5.7 |
| COc1cccc(C(C)(F)c2ccc(C[C@H]3OC(=O)[C@H](CC(C)C)N(C)C(=O)[C@@H](C)OC(=O)[C@H](CC(C)C)N(C)C(=O)[C@@H](Cc4ccc(C(C)(F)c5cccc(OC)n5)cc4)OC(=O)[C@H](CC(C)C)N(C)C(=O)[C@@H](C)OC(=O)[C@H](CC(C)C)N(C)C3=O)cc2)n1 (stereo partly drawn) [Example 3-225, (3S,6R,9S,12R,15S,18R,21S,24R)-6,18-bis(4-(1-fluoro-1-(6-methoxypyridin-2-yl)ethyl)benzyl)-3,9,15,21-tetraisobutyl-4,10,12,16,22,24-hexamethyl-1,7,13,19-tetraoxa-4,10,16,22-tetraazacyclotetracosan-2,5,8,11,14,17,20,23-octaone] | 0.0007 | 429 | 0.3 | > 100 |
| CC(C)C[C@H]1C(=O)O[C@H](Cc2ccc(Cc3snnc3C(C)C)cc2)C(=O)N(C)[C@@H](CC(C)C)C(=O)O[C@H](C)C(=O)N(C)[C@@H](CC(C)C)C(=O)O[C@H](Cc2ccc(Cc3snnc3C(C)C)cc2)C(=O)N(C)[C@@H](CC(C)C)C(=O)O[C@H](C)C(=O)N1C [Example 3-228, (3S,6R,9S,12R,15S,18R,21S,24R)-3,9,15,21-tetraisobutyl-6,18-bis(4-((4-isopropyl-1,2,3-thiadiazol-5-yl)methyl)benzyl)-4,10,12,16,22,24-hexamethyl-1,7,13,19-tetraoxa-4,10,16,22-tetraazacyclotetracosan-2,5,8,11,14,17,20,23-octaone] | 0.0005 | 20 | 0.01 | > 100 |
